Laboratory results from patent US20040171795A1, “Novel peptides” (priority 2000, published 2004).
pIC50: −log10 of the molar value.

Tests used:
[1] = Affinity by surface plasmon resonance (Biacore 2000), flow cell 1; format: binding; details: SPR, HPA chip, 0.1 mg/mL BSA
Method: (§1) The specific affinity of the peptide for phosphatidyl serine was evaluated by means of surface plasmon resonance (SPR) using Biacore 2000 (manufactured by Biacore). To be more specific, phosphatidyl choline was immobilized on flow cell 1, and 50% of phosphatidyl serine and 50% of phosphatidyl choline were immobilized on flow cell 2 of HPA chip (manufactured by Biacore), and ability of the peptide to bind to the phospholipid was evaluated in the presence of 0.1 mg/mL BSA to thereby evaluate the affinity.

[2] = Measurement of CD spectrum; format: physicochemical
Method: The peptide dissolved in 10 mM phosphate buffer (pH=7) containing 50 mM NaCl was evaluated for its CD spectrum in the presence and in the absence of 5 mM SDS by using a circular dichroism spectrophotometer (J-500A, manufactured by JASCO). The cell length was 1 mm. The measurement was conducted at 35° C. for 6 times in total. FIGS. 7 to 9 are respectively views showing mean residue ellipticity in CD spectroscopy of the peptide of SEQ ID NO:1, the peptide of SEQ ID NO:4 and the peptide of SEQ ID NO:16. As evident in FIGS. 7 to 9, the mean residue ellipticity obtained in the presence of SDS was the so called W curve and local minimums were found in the areas at the wavelength of 205 to 210 nm and 220 to 225 nm, and α-helix structure was thereby confirmed.

[3] = system: cell (Vero, T24 or A549 of Example 9; not given); experiment: Nucleic acid-introducing ability, luciferase-expressing plasmid (procedure of Example 9); format: cell-based; details: for ability of introducing the nucleic acid into a cell: procedure of Example 9, luciferase-expressing plasmid; for Nucleic acid-introducing ability: class of fluorescent count per 1 mg of protein per 1 second, highest of peptide 1.25, 2.5, 5 μM, plasmid 1 μg/mL
From the text: A cell line established from monkey kidney (Vero cell) and a human bladder cancer cell (T24 cell) purchased from American Type Culture Collection (ATCC) and human lung cancer cell (A549 cell) purchased from Dainippon Pharmaceutical were inoculated on a 24 well culture plate (manufactured by NALGEN NUNC) at 1×10^5 cells/well. Vero cell and A549 cell were cultivated in DMEM (manufactured by Life Technologies Oriental) supplemented with 10% fetal bovine serum (hereinafter referred to as FBS, manufactured by NICHIREI), and T24 cell was cultivated in McCoy's 5a (manufactured by Life Technologies Oriental) supplemented with 10% FBS in 5% CO2 atmosphere at 37° C. for 24 hours. After removing the medium, opti-MEM (manufactured by Life Technologies Oriental) prepared to have the concentration of the luciferase-expressing plasmid prepared in Example 7 of 1 μg/mL and the concentration of the peptide prepared in Example 1 of 1.25, 2.5, or 5 μM was added, and the cells were cultivated for 5 hours. Next, in the case of Vero cell and A549 cell, the culture medium was replaced with DMEM supplemented with 10% FBS, and in the case of T24 cell, the medium was replaced with McCoy's 5a supplemented with 10% FBS, and cultivation was continued in 5% CO2 atmosphere and at 37° C. for another 24 hours. The luciferase activity expressed in the cell was then measured by the method instructed in luciferase assay system (manufactured by Promega). To be more specific, the cells were washed with phosphate-buffered saline (hereinafter referred to as PBS, manufactured by SIGMA), and the cells were lyzed with Passive Lysis Buffer attached to the kit. 20 μL of this cell lysate and 100 μL of the Luciferase Assay Reagent II attached to the kit was added to a fluorescence-measuring plate (Microlite™ 1 plate, manufactured by Dynatech), and after mixing, fluorescence was measured for 1 second by using a multilabel counter (ARVO™ SY1420 MULTILABEL COUNTER, manufactured by Wallac Beltold.
Concentration of the protein in the cell lysate was measured by mixing 8 μL of the cell lysate and 200 μL of the protein assay solution (manufactured by Biorad) with 792 μL of ultrapure water in a disposable cuvette (UV fluorescent cuvette A204X, manufactured by Funakoshi), allowing the mixture to stand for 5 minutes at room temperature, and measuring the absorption at 595 nm with a spectrophotometer (DU640, manufactured by Beckman). Bovine serum albumin (BSA) was used for the standard protein. By using the thus obtained results, count per 1 second per 1 mg of protein of the cell lysate was calculated to thereby use the count as the luciferase activity, and the highest count in the three conditions of different peptide concentration was designated the gene-introducing ability of the peptide.
It is to be noted that the nucleic acid-introducing ability was classified as described below on the bases of the fluorescent count per 1 mg of protein per 1 second (cps/mg protein).

[4] = Affinity by surface plasmon resonance (Biacore 2000), flow cell 2; format: binding; details: SPR, HPA chip, 0.1 mg/mL BSA; compared with flow cell 1
Method: as §1

Vero cell = experiment: Storage stability of the complex with nucleic acid (luciferase activity); format: cell-based, monkey; details: luciferase-expressing plasmid 2 μg/mL, peptide 5 μM; reagents per attached protocol
Method: Luciferase-expressing plasmid was introduced in Vero cell in accordance with the procedure described in Example 9 by using the opti-MEM prepared to have a concentration of the luciferase-expressing plasmid prepared in Example 7 of 2 μg/mL and a concentration of the peptide of SEQ ID NO:4 prepared in Example 1 of 5 μM to thereby measure the luciferase activity. The opti-MEM containing plasmid and peptide used were the one which had been prepared immediately before the gene introduction, and the one which had been prepared 1 week (7 days) in advance and stored at 4° C.
For the purpose of reference, gene-introducing activity of Lipofectin and LipofectAMINE 2000 (manufactured by Life Technologies Oriental), which are commercially available plasmid-introducing agents, were also evaluated by mixing these reagent with luciferase-expressing plasmid in accordance with the attached protocol, and evaluating their gene-introducing activity after storing at 4° C. for 1 week.

[5] = Affinity for phosphatidyl serine (EIA, inhibition of human Factor VIII binding); details: class of IC50 for inhibiting human Factor VIII binding, 5% BSA
Method: The specific affinity of the peptide for phosphatidyl serine was evaluated by measuring activity of the peptide for inhibiting the binding of the human Factor VIII to phosphatidyl serine by using human Factor VIII which is known to bind to phosphatidyl serine but not to phosphatidyl choline in the presence of serum albumin. To be more specific, 100 μL of ethanol solution containing 10 μg/mL of phospholipids at a phosphatidyl serine (manufactured by SIGMA): phosphatidyl choline (manufactured by SIGMA) ratio of 3:7 was added to the wells of a 96 well plate (Immulon I, manufactured by Dynatech), and exsiccated by using a centrifugal evaporator (EC-95C, manufactured by Sakuma Seisakusho) at 40° C. for 40 minutes. 200 μL each of TBS (10 mM Tris-HCl (pH 7.4) containing 1% bovine serum albumin (BSA Fraction V, hereinafter referred to as BSA, manufactured by Seikagaku Corporation) and 0.9% (W/V) NaCl solution were added to each well, and the wells were blocked by allowing the plate to stand at 37° C. for 2.5 hours. After washing the plate with water, 100 μL of TBS solution supplemented with 5% BSA mixed with human Factor VIII (manufactured by American Diagnostica) at a final concentration 1 μg/mL and the peptide of predetermined dose prepared in Example 1 was added to each well, and the reaction was allowed to take place at 4° C. for 24 hours.
After the completion of the reaction, the human Factor VIII that became bound to the phosphatidyl serine was measured by enzyme immunoassay (EIA) in accordance with the general procedure described in a book (“Enzyme Immunoassay (3rd ed.)”, Eiji Ishikawa et al., Igaku-Shoin, 1987). To be more specific, the measurement was conducted by using anti-human Factor VIII mouse monoclonal antibody (ESH8, manufactured by American Diagnostica) for the primary antibody, horseradish peroxidase-labeled anti-mouse IgG antibody (P0260, manufactured by Daco) for the secondary antibody, and tetramethylbenzidine for the chromogenic substrate, and measuring the absorption at a wavelength of 450 nm by using a reference wavelength of 630 nm on a spectrophotometer (NJ-2100, manufactured by Intermed).
Intensity of the affinity of the peptide for the phosphatidyl serine was evaluated by using the value obtained by subtracting the absorption of the well having no human Factor VIII added thereto from the absorption of the well having only the human Factor VIII added thereto as the control value (100%), and designating the peptide concentration at which the value 0.5 was obtained when the value obtained by subtracting the absorption of the well having only the peptide added thereto from the absorption of the well having a mixture of the human Factor VIII and the peptide added thereto were divided by the control value as the IC50 value, and evaluating the intensity to be ++ when the IC50 value was up to 1 μM, and +when the intensity was more than 1 μM but not more than 10 μM. It is to be noted that the specific affinity was evaluated to be none when the intensity was 10 μM or more.

[6] = Measurement of turbidity in BSA; format: physicochemical; details: BSA 1%, peptide 50 μM, absorbance at 600 nm
Method: The solutions were evaluated for their absorbance at a wavelength of 600 nm by using a spectrophotometer (DU640, manufactured by Beckman).

Substance: SEQ ID NO:25: comparative peptide, same amino acid composition as SEQ ID NO:1 but an utterly random amino acid sequence (TIRYRPSHQIRLRAVLHLWIRYRPSHQIRLRAVLHWS; synthetic peptide using an automatic peptide synthesizer) [reference compound]
- binding to flow cell 1 (phosphatidyl choline) [1]: no binding
- α-helix structure in CD spectrum in the presence of SDS ([2]; 5 mM SDS, 10 mM phosphate buffer pH 7, 50 mM NaCl, 35° C.): no α-helix structure is found
- ability of introducing the nucleic acid into a cell [3]: neither the nucleic acid-introducing ability
- binding to flow cell 2 (50% phosphatidyl serine, 50% phosphatidyl choline) [4]: no binding

Substance: SEQ ID NO: 4: peptide of SEQ ID NO:1 with one or two locations substituted in the 18 amino acid sequence (TRYLRIHPRSWLHQIALRLRYLRIHPRSWLHQIALRS; synthetic peptide using an automatic peptide synthesizer)
- gene-introducing activity after storing the complex at 4° C. for 1 week, relative to freshly prepared complex (Vero cell): substantially equivalent
- α-helix structure in CD spectrum in the absence of SDS ([2]; aqueous solution solely containing an inorganic salt, pH 7, 35° C.): do not take α-helix structure
- Nucleic acid-introducing ability [3]: 4+ (10,000,000 or more)

Substance: SEQ ID NO: 8: peptide of SEQ ID NO:1 with one or two locations substituted in the 18 amino acid sequence (TRYLRIHPKSWVHQIALRLRYLKIHPRSWVHQIALRS; synthetic peptide using an automatic peptide synthesizer)
- pIC50 [5]: 5.00 to 6.00
- OD 600 [6]: 0.01>
- Nucleic acid-introducing ability [3]: 3+ (1,000,000 to less than 10,000,000)

Substance: SEQ ID NO: 10: peptide of SEQ ID NO:1 with one or two locations substituted in the 18 amino acid sequence (TRSLRIHPRSWVHQIALRLRSLRIHPRSWVHQIALRS; synthetic peptide using an automatic peptide synthesizer)
- pIC50 [5]: 5.00 to 6.00
- OD 600 [6]: 0.01>
- Nucleic acid-introducing ability [3]: 3+ (1,000,000 to less than 10,000,000)

Substance: SEQ ID NO: 11: peptide of SEQ ID NO:1 with one or two locations substituted in the 18 amino acid sequence (TRYLRIHPRLWVHQIALRLRYLRIHPRLWVHQIALRS; synthetic peptide using an automatic peptide synthesizer)
- pIC50 [5]: 5.00 to 6.00
- OD 600 [6]: 0.01>
- Nucleic acid-introducing ability [3]: 3+ (1,000,000 to less than 10,000,000)

Substance: SEQ ID NO: 15: peptide of SEQ ID NO:1 with one or two locations substituted in the 18 amino acid sequence (TRYLRIRPRSWVRQIALRLRYLRIRPRSWVRQIALRS; synthetic peptide using an automatic peptide synthesizer)
- pIC50 [5]: > 6.00
- OD 600 [6]: 0.01>
- Nucleic acid-introducing ability [3]: 2+ (100,000 to less than 1,000,000)

Substance: SEQ ID NO: 17: peptide of SEQ ID NO:1 with one or two locations substituted in the 18 amino acid sequence (TRSLRIHPRLWVHQIALRLRSLRIHPRLWVHQIALRS; synthetic peptide using an automatic peptide synthesizer)
- pIC50 [5]: > 6.00
- OD 600 [6]: 0.01>
- Nucleic acid-introducing ability [3]: 2+ (100,000 to less than 1,000,000)

Substance: SEQ ID NO: 19: peptide of SEQ ID NO:1 with three locations substituted in the 18 amino acid sequence; preferred peptide (TRYLRLHPRSWLHQLALRLRYLRLHPRSWLHQLALRS; synthetic peptide using an automatic peptide synthesizer)
- pIC50 [5]: > 6.00
- OD 600 [6]: 0.01>
- Nucleic acid-introducing ability [3]: 4+ (10,000,000 or more)

Substance: SEQ ID NO: 23: deletion mutant of the peptide of SEQ ID NO:1 (TIHPRSWVHQIALRLRYLRIHPRSWVHQIAS; synthetic peptide using an automatic peptide synthesizer)
- pIC50 [5]: > 6.00
- OD 600 [6]: 0.01>
- Nucleic acid-introducing ability [3]: 2+ (100,000 to less than 1,000,000)
- ability of introducing the nucleic acid into a cell [3]: had the ability of introducing the nucleic acid into a cell
